In the first assay the target is T1, human GPBAR1 receptor (Homo sapiens, UniProt Q8TDU6).
T1 construct: expressed in transfected cells
T1 sequence (Q8TDU6 1-330): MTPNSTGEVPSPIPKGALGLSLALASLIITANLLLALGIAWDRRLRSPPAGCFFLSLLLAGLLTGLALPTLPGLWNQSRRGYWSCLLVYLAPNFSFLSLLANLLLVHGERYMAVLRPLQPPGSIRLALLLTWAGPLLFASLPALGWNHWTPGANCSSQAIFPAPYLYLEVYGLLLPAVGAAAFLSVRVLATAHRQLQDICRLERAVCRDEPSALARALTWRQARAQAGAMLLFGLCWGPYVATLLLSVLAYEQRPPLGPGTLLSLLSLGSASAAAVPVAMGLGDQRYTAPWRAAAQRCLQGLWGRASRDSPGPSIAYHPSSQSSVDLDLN
As to the kind of experiment: functional cAMP assay in CHO-dhfr(minus) cells expressing human GPBAR1 receptors. The settings on record: functional cAMP assay, 30 min at 30° C., read-out: human EC50. Format: cell-based. The procedure, abridged:
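Agonist cAMP read-out: stable GPBAR1 CHO-dhfr− clone, 30 min compound exposure at 30° C following 30 min IBMX (1 mM) preincubation in Krebs Ringer bicarbonate. Time-resolved energy-transfer detection gives EC50; parental CHO cells serve as counter-screen.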
(In general: Changes in cAMP serve as a functional read-out for many G protein-coupled receptors.)
By EC50 is commonly meant the midpoint of the concentration-response curve. `COC1CN(c2ccc([C@@H](C/C(=N\O)c3ccnc(C)c3)c3ccccc3C)cc2)C1` [Example 270, (E,R)-3-[4-(3-Methoxy-azetidin-1-yl)-phenyl]-1-(2-methyl-pyridin-4-yl)-3-o-tolyl-propan-1-one oxime]: the EC50 is 0.005 µM.

Still in this assay, the particulars now being: human EC50, functional cAMP assay, 30 min at 30° C.
Regarding `Cc1cc(Cl)ccc1C(C/C(=N\O)c1ccc(=O)n(C)c1)c1ccc(Oc2ccc(F)c(C(=O)O)c2)cc1` (stereo not drawn) [Example 348, 5-{4-[1-(4-Chloro-2-methyl-phenyl)-3-[(E)-hydroxyimino]-3-(1-methyl-6-oxo-1,6-dihydro-pyridin-3-yl)-propyl]-phenoxy}-2-fluoro-benzoic acid], the concentration for a half-maximal effect (EC50) came out at 0.071 µM.

`CN(CCO)C(=O)c1cccc(C(C/C(=N\O)c2ccc(=O)n(C)c2)c2ccc(Cl)cc2F)c1` (stereo not drawn) [Example 321, (E)-3-(1-(4-Chloro-2-fluorophenyl)-3-(hydroxyimino)-3-(1-methyl-6-oxo-1,6-dihydropyridin-3-yl)propyl)-N-(2-hydroxyethyl)-N-methylbenzamide] yielded an EC50 of 5.2 µM.

The molecule `Cc1cc(/C(C[C@H](c2ccc(-c3cn(CC(=O)O)nn3)cc2)c2ccccc2C)=N/O)ccn1` (single isomer, unassigned) [Example 425, (4-{4-[(−)-3-[(E)-Hydroxyimino]-3-(2-methyl-pyridin-4-yl)-1-o-tolyl-propyl]-phenyl}-[1,2,3]triazol-1-yl)-acetic acid] showed a concentration for a half-maximal effect (EC50) of 0.014 µM.

Regarding `Cc1cc(/C(CC(c2ccc(-c3ccc(C(=O)O)cc3C)cc2)c2ccc(Cl)cc2F)=N/O)ccn1` (stereo not drawn) [Example 456, 4′-[1-(4-Chloro-2-fluoro-phenyl)-3-[(E)-hydroxyimino]-3-(2-methyl-pyridin-4-yl)-propyl]-2-methyl-biphenyl-4-carboxylic acid], the EC50 was found to be 0.016 µM.

`Cn1cc(/C(CC(c2ccc(-c3c[nH]c(=O)[nH]c3=O)cc2)c2ccc(Cl)cc2F)=N/O)ccc1=O` (stereo not drawn) [Example 471, 5-{4-[1-(4-Chloro-2-fluoro-phenyl)-3-[(E)-hydroxyimino]-3-(1-methyl-6-oxo-1,6-dihydro-pyridin-3-yl)-propyl]-phenyl}-1H-pyrimidine-2,4-dione]: the EC50 came to 0.17 µM.

In turn, `Cn1cc(/C(CC(c2ccc(Br)cc2)C2CCCC2)=N\O)ccc1=O` (stereo not drawn) [Example 173, 5-{3-(4-Bromo-phenyl)-3-cyclopentyl-1-[(Z)-hydroxyimino]-propyl}-1-methyl-1H-pyridin-2-one] yielded an EC50 of 1.93 µM.

With `Cc1cc(Cl)ccc1C(C/C(=N\O)c1ccc(=O)n(C)c1)c1ccc(C(=O)NCCS(C)(=O)=O)cc1` (stereo not drawn) [Example 336, (E)-4-(1-(4-Chloro-2-methylphenyl)-3-(hydroxyimino)-3-(1-methyl-6-oxo-1,6-dihydropyridin-3-yl)propyl)-N-(2-(methylsulfonyl)ethyl)benzamide], the EC50 amounted to 0.33 µM.

In turn, `Cc1cc(C(CC(c2ccc(CCCCC(=O)O)cc2)c2ccccc2C)=NO)ccn1` (racemic) [Example 115, 5-{4-[3-[Hydroxyimino]-3-(2-methyl-pyridin-4-yl)-1-o-tolyl-propyl]-phenyl}-pentanoic acid] displayed an EC50 of 0.041 µM.

`Cc1ccccc1C(CC(=NO)c1ccncc1)c1cccc(-c2cccc(S(C)(=O)=O)c2)c1` (racemic) [Example 30, 3-(3′-Methanesulfonyl-biphenyl-3-yl)-1-pyridin-4-yl-3-o-tolyl-propan-1-one oxime] came in with an EC50 of 0.181 µM.

`Cn1cc(/C(CC(c2ccc(C(=O)N[C@H]3CC[C@H](O)CC3)c(F)c2)c2ccccc2Cl)=N/O)ccc1=O` (stereo partly drawn) [Example 217, Trans-4-[1-(2-Chloro-phenyl)-3-[(E)-hydroxyimino]-3-(1-methyl-6-oxo-1,6-dihydro-pyridin-3-yl)-propyl]-2-fluoro-N-(4-hydroxy-cyclohexyl)-benzamide] registered an EC50 of 0.7 µM.

For `Cc1cc(C(=NO)C(Cc2ccc(Br)cc2)c2ccccc2)cc(C)n1` (racemic) [Example 45, 3-(4-Bromo-phenyl)-1-(2,6-dimethyl-pyridin-4-yl)-2-phenyl-propan-1-one oxime], the EC50 turned out to be 1.16 µM.

`Cc1cnc(F)cc1C(CC(c1ccc(-c2ccc(C(=O)O)cc2)cc1)c1ccccc1C)=NO` (racemic) [Example 130, 4′-{3-(2-Fluoro-5-methyl-pyridin-4-yl)-3-[hydroxyimino]-1-o-tolyl-propyl}-biphenyl-4-carboxylic acid] came in with an EC50 of 0.087 µM.

In turn, `Cc1ccccc1[C@@H](C/C(=N\O)c1cnc(=O)n(C)c1)c1ccc(Br)cc1` [Example 501, (S,E)-5-(3-(4-Bromophenyl)-1-(hydroxyimino)-3-o-tolylpropyl)-1-methylpyrimidin-2(1H)-one] came in with an EC50 of 0.225 µM.

On to `Cc1cc(F)ccc1[C@@H](C/C(=N\O)c1ccc(=O)n(C)c1)c1ccc(Br)cc1` (single isomer, unassigned) [Example 405, (+)-5-{3-(4-Bromo-phenyl)-3-(4-fluoro-2-methyl-phenyl)-1-[(E)-hydroxyimino]-propyl}-1-methyl-1H-pyridin-2-one], for which a half-maximal response (EC50) required 0.008 µM.

The molecule `Cc1ccc(C(C/C(=N\O)c2ccc(=O)n(C)c2)c2ccc(-c3ccc(C(=O)O)cc3)cc2)c(F)c1` (stereo not drawn) [Example 411, (E)-4′-(1-(2-fluoro-4-methylphenyl)-3-(hydroxyimino)-3-(1-methyl-6-oxo-1,6-dihydropyridin-3-yl)propyl)biphenyl-4-carboxylic acid] showed an EC50 of 0.995 µM.

For `Cn1cc(/C(CC(c2ccccc2Cl)C2CC[N+](C)(C)CC2)=N/O)ccc1=O` (stereo not drawn) [Example 198, 4-[1-(2-Chloro-phenyl)-3-[(E)-hydroxyimino]-3-(1-methyl-6-oxo-1,6-dihydro-pyridin-3-yl)-propyl]-1,1-dimethyl-piperidinium iodide], the concentration for a half-maximal effect (EC50) came to 9.64 µM.

For `Cc1cc(/C(C[C@H](c2ccc(NCC(CCl)C(=O)O)cc2)c2ccccc2C)=N/O)ccn1` (stereo partly drawn) [Example 280, 2-Chloromethyl-3-{4-[(R)-3-[(E)-hydroxyimino]-3-(2-methyl-pyridin-4-yl)-1-o-tolyl-propyl]-phenylamino}-propionic acid], it took 0.019 µM to reach a half-maximal effect (EC50).

As to `Cn1cc(/C(CC(Cc2ccc(OC(F)(F)F)cc2)c2ccc(Br)cc2)=N/O)ccc1=O` (stereo not drawn) [Example 180, 5-[3-(4-Bromo-phenyl)-1-[(E)-hydroxyimino]-4-(4-trifluoromethoxy-phenyl)-butyl]-1-methyl-1H-pyridin-2-one], the EC50 is 3.45 µM.

For `COCCN(C)c1ccc([C@@H](C/C(=N\O)c2ccnc(C)c2)c2ccccc2C)cc1` [Example 267, (E,R)-3-{4-[(2-Methoxy-ethyl)-methyl-amino]-phenyl}-1-(2-methyl-pyridin-4-yl)-3-o-tolyl-propan-1-one oxime], the EC50 turned out to be 0.018 µM.

For `Cn1cc(/C(CC(c2ccc(Br)cc2)C2CCCCC2)=N/O)ccc1=O` (stereo not drawn) [Example 178, 5-{3-(4-Bromo-phenyl)-3-cyclohexyl-1-[(E)-hydroxyimino]-propyl}-1-methyl-1H-pyridin-2-one], the EC50 came out at 0.042 µM.

`COc1cc(-c2ccc(C(C/C(=N\O)c3ccnc(C)c3)c3ccc(Cl)cc3F)cc2)ccc1C(=O)O` (stereo not drawn) [Example 455, 4′-[1-(4-Chloro-2-fluoro-phenyl)-3-[(E)-hydroxyimino]-3-(2-methyl-pyridin-4-yl)-propyl]-3-methoxy-biphenyl-4-carboxylic acid] had a half-maximal effective concentration (EC50) of 0.012 µM.

In the case of `Cc1ccc(C(CC(=NO)c2ccncc2)c2ccc(N(C)C)cc2)cc1C` (racemic) [Example 17, 3-(4-Dimethylamino-phenyl)-3-(3,4-dimethyl-phenyl)-1-pyridin-4-yl-propan-1-one oxime], the EC50 worked out at 0.38 µM.

Take `Cn1cc(/C(CC(c2ccc(S(C)(=O)=O)cc2)c2cc(F)cc(F)c2)=N/O)ccc1=O` (stereo not drawn) [Example 351, (E)-5-(3-(3,5-Difluorophenyl)-1-(hydroxyimino)-3-(4-(methylsulfonyl)phenyl)propyl)-1-methylpyridin-2(1H)-one]: the response was half-maximal at 0.452 µM (EC50).

With `Cc1cc(C(CC(c2ccccc2)c2ccccc2)=NO)cc(C)n1` (racemic) [Example 67, 1-(2,6-Dimethyl-pyridin-4-yl)-3,3-diphenyl-propan-1-one oxime], the 50% effective concentration (EC50) turned out to be 0.132 µM.

Take `Cc1cc(/C(CC(c2ccc(Br)cc2)c2ccccc2C(F)(F)F)=N/O)ccn1` (stereo not drawn) [Example 132, (E)-3-(4-Bromo-phenyl)-1-(2-methyl-pyridin-4-yl)-3-(2-trifluoromethyl-phenyl)-propan-1-one oxime]: the midpoint of the response, the EC50, lay at 0.046 µM.

For the molecule `Cc1ccccc1C(C/C(=N\O)c1ccc(=O)n(C)c1)c1ccc(C(=O)NCC(O)C(F)(F)F)cc1` (stereo not drawn) [Example 309, (E)-4-(3-(Hydroxyimino)-3-(1-methyl-6-oxo-1,6-dihydropyridin-3-yl)-1-o-tolylpropyl)-N-(3,3,3-trifluoro-2-hydroxypropyl)benzamide], the midpoint of the response, the EC50, lay at 0.13 µM.

In turn, `ON=C(CC(c1ccccc1)c1ccccc1)c1cc(Cl)ncc1F` (racemic) [Example 55, 1-(2-Chloro-5-fluoro-pyridin-4-yl)-3,3-diphenyl-propan-1-one oxime] yielded an EC50 of 0.117 µM.

Consider `COC(=O)c1ccc(-c2ccc(C(C/C(=N\O)c3ccnc(C)c3)c3ccc(Cl)cc3F)cc2)cc1F` (stereo not drawn) [Example 446, 4′-[1-(4-Chloro-2-fluoro-phenyl)-3-[(E)-hydroxyimino]-3-(2-methyl-pyridin-4-yl)-propyl]-3-fluoro-biphenyl-4-carboxylic acid methyl ester], for which the response was half-maximal at 0.059 µM (EC50).

`Cc1ccccc1C(C/C(=N\O)c1ccc(=O)n(C)c1)c1ccc(C(=O)N(C)CCO)cc1` (stereo not drawn) [Example 209, N-(2-Hydroxy-ethyl)-4-[3-[(E)-hydroxyimino]-3-(1-methyl-6-oxo-1,6-dihydro-pyridin-3-yl)-1-o-tolyl-propyl]-N-methyl-benzamide] returned an EC50 of 0.443 µM.

For the origin of these results see patent US8765730B2 (Hoffmann-La Roche Inc, priority 2010, dated 2014).
